In patent US20260152533A1, “COMBINATION INHIBITORS FOR TREATING FIBROSIS” (Memorial Sloan-Kettering Cancer Center, priority 2021, published 2026):

Key:
Format in all cases: cell-based, mouse
[1] = test system: pancreatic stellate cells (PSCs); assay: Growth experiments, PSCs; conditions: 20% Gln, TGFβ
From the text: NIH-3T3 cells were obtained from ATCC (CRL-1658); 293 T cells were obtained from ATCC (CRL-3216). PSCs were isolated from C57BL/6 mice by differential centrifugation as previously described^49 and their mesenchymal origin was validated by analyzing the expression of various mesenchymal and epithelial markers. MFBs were isolated from FVB/N mice by differential centrifugation as previously described^50. DB7 mouse breast cancer cells were obtained from Alexander Borowsky (University of California Davis Comprehensive Cancer Center, Sacramento, CA, USA) through an MTA to Ohio State University (OSU). KPC (Kras^LSL-G12D; Trp53^LSL-R172H; Pdx1-Cre) mouse PDAC cells were a gift from Scott Lowe (Memorial Sloan Kettering Cancer Center. (MSKCC)). […]
A total of 0.2×10^5 cells/well were plated in 24-well culture plates and media was changed and treatments started 5-6 hours later. Cell numbers at the start of treatment (day 0 “d 0”) and 1, 2 and 3 days later were counted using the Multisizer 4e (Beckman) and normalized to the cell number at d 0. In co-culture assays, a fraction of the cell population was analyzed by flow cytometry for GFP expression, and the rest counted with the Multisizer 4e. The number of KPC-GFP cells was determined by multiplying the fraction of GFP+ cells with the total number of cells.

[2] = test system: pyruvate carboxylase (PC); assay: [3,4-13C]-Glc tracing in PSCs (PC activity); conditions: low Gln (20%), TGFβ 48 hours (FIGS. 10J and 10K)
Experimental: Cells were plated in six-well cell culture plates at a concentration aimed to reach 0.5-1×10^6 cells at the time of harvest. For quantification of relative metabolite abundance, cells were cultured with glutamine-free DMEM containing different concentrations of L-glutamine and supplemented with 10% dialyzed FBS and in some experiments were treated with TGFβ for 48 hours. For the [U-^13C]and [3,4-^13C]glucose tracing experiments, cells were cultured as above, and in the last 8 hours media was replaced with DMEM without D-glucose and L-glutamine supplemented with 2 mM or 0.2 mM L-glutamine and 10 mM [U-^13C]or [3,4-^13C]D-glucose (Cambridge Isotope Laboratories) and 10% dialyzed FBS. […] For relative quantification of metabolites by gas chromatography-mass spectroscopy (GC-MS), cells were washed briefly with PBS, which was then fully aspirated and metabolism was quenched by immediately adding 1 mL of 80:20 methanol:water stored at −80° C. containing 20 μM deuterated 2-hydroxyglutarate (d5-2HG) as an internal standard. […]
GC-MS measurements were performed as described before^11. Ions used for quantification of metabolite levels were as follows: d5-2HG m/z 354; citrate m/z 465; alpha-ketoglutarate m/z 304; succinate m/z 247; fumarate m/z 245; malate m/z 335; aspartate m/z 232; hydroxyproline m/z 332; proline m/z 216; glutamate m/z 246; glutamine m/z 245; lactate m/z 219; pyruvate m/z 174. […]

[3] = test system: pancreatic stellate cells (PSCs); assay: Collagen abundance in ECM derived from confluent PSCs; conditions: Gln 20% or lower, TGFβ (FIG. 8C)
Experimental: Culture plates were coated with 0.1% gelatin (Sigma) and treated with 1% glutaraldehyde (Sigma) and 1 M ethanolamine (Sigma). Confluent NIH-3T3 cells, MFBs or PSCs were grown for 6 days on coated plates in the presence of […] sodium ascorbate (Sigma) and treated as indicated, and the medium was replaced every other day. Plates were decellularized with 20 mM ammonium hydroxide/0.5% Triton-X 100 for 5 min on a rotating platform. Three times the volume of PBS was added, and ECM was equilibrated overnight at 4° C., followed by four additional PBS washes. For western blot, preheated sample buffer supplemented with 1 mM dithiothreitol (DTT) was added, ECM was scraped off and boiled, and proteins were separated by SDS-PAGE followed by immunoblotting. To measure collagen abundance, fibroblast-derived ECM was stained with the Picro Sirius Red Stain Kit (Abcam) according to the manufacturer's instructions. The stain was extracted with 0.1 M sodium hydroxide (NaOH) and optical density was measured at 550 nm using a microplate reader. Differences in cell number were controlled for by growing cells on separate plates under the same experimental conditions.

## TGFβ: transforming growth-factor beta; TGFβ-1 purchased from Peprotech
[1]
  cell proliferation: unable to proliferate
[2]
  PC activity: suppressed
[3]
  collagen accumulation in the ECM: could no longer stimulate
